One data set concerns Hep 3B. Description: In vitro cytotoxicity, MTT assay, Hep 3B. Format: cell-based. The conditions noted are these: Homo sapiens, Hep3B, 72 h, read-out: IC50 ± SD. A general note: Tetrazolium dyes change colour on reduction, which living cells bring about.
The test system of another data set is BEL-7402. Briefly: In vitro cytotoxicity, MTT assay, BEL-7402. Format: cell-based. The following applies: Homo sapiens, Bel-7402, 72 h, read-out: IC50 ± SD.
A short description of data set [1]: Drug loading and encapsulation efficiency by RP-HPLC. It is filed as physicochemical. The following applies: PEG5k-PLA8k NPs, matrices/SN38 feed weight ratio 19:1, n = 3.
Another data set relates to advanced HCC. The conditions noted are these: patients with advanced HCC; cited from earlier work.
The next data set concerns Hep 3B cells. Briefly: Cell proliferation by EdU incorporation. Format: cell-based, human. The conditions noted are these: 2 μM SN38 equivalent, 24 h.
The test system of the next data set is human HCC PDX tumors. Description: Antitumor activity in human HCC PDX tumor model. Format: in vivo, Balb/c nude mice. The conditions noted are these: i.v. x3.
A short description of data set [2]: Bloody diarrhea and intestinal damage study. It is filed as in vivo, Balb/c mice.
The conditions of data set [3]: clinical; cited from earlier work.
A further data set relates to carboxylesterases. The conditions noted are these: in the body, background statement; cited from earlier work.
Data set [4] is described as follows: Pharmacokinetics after single i.v. injection. The conditions noted are these: Sprague-Dawley, rat, in vivo, iv, 12 mg/kg.

A value given as a limit tells only on which side of the number the result lay.

These results are taken from article PMC6071539 (Theranostics, 2018).

By IC50 is commonly meant the concentration at which inhibition is half-maximal. A word on the AUC(0-inf): it is total exposure, with the tail of the curve extrapolated. Usually AUC(0-t) stands for exposure summed from dosing to a finite time, without extrapolation to infinity. Low readings indicate less exposure, high ones more exposure. A word on the Cmax: it is the highest concentration seen after dosing.

Regarding `CCc1c2c(nc3ccc(O)cc13)-c1cc3c(c(=O)n1C2)COC(=O)[C@]3(O)CC` [SN38, 7-ethyl-10-hydroxycamptothecin], the values for the half-inhibitory concentration (IC50) with Hep 3B and in the data set on BEL-7402 were 7.74 ± 1.18 µM and 2.76 ± 0.16 µM, respectively. For the same compound, the “EE (encapsulation efficiency)” value in data set [1] was less than 5%.
For `CNC(=O)c1cc(Oc2ccc(NC(=O)Nc3ccc(Cl)c(C(F)(F)F)c3)cc2)ccn1` [sorafenib], the “Extension of median overall survival compared with a placebo” value with advanced HCC is 2.8 months.
With `CCc1c2c(nc3ccc(OC(=O)N4CCC(N5CCCCC5)CC4)cc13)-c1cc3c(c(=O)n1C2)COC(=O)[C@]3(O)CC` [CPT-11, irinotecan], the IC50 in the data set on Hep 3B came out at 49.3 ± 3.3 µM. Also, in the data set with BEL-7402, the IC50 turned out to be 42 ± 2.06 µM. Further, in the data set with Hep 3B cells, the “Effect on proliferation (EdU incorporation)” value is reported as “negligible effect”. Also, the “Antitumor efficacy” value in the data set with human HCC PDX tumors is recorded as “moderate efficacy”. Moreover, the “Large intestine histology (H&E)” value in data set [2] (day 9, healthy Balb/c mice) was “destruction of these tissues by eliminating the glands and causing diffuse mucosal damage”. Besides, in data set [2] (healthy Balb/c mice, CPT-11 22.5 mg/kg i.v. x3), the “Onset of bloody diarrhea” value stood at 2 days. In addition, the “Incidence of grade 3 or 4 diarrhea” value in data set [3] is 31%. Besides, the “Enzymatic conversion to SN38, share of dosed CPT-11” value in the data set on carboxylesterases is listed as “less than 8%”. In data set [4], this compound gave an AUC(0-inf) of 68900 ng·h/mL, an area under the curve AUC(0-t) of 67600 ng·h/mL and a Cmax of 23800 ng/mL.
